How the values were obtained:
[1] = tested on: CEM cells; test: Cytotoxicity in growing CEM cells, microscopic inspection; assay type: cell-based
Method: (§1) Cells and viruses. The routine growth and passage of KB cells was performed in monolayer cultures using minimal essential medium (MEM) with either Hanks salts [MEM(H)] or Earle salts [MEM(E)] supplemented with 10% calf serum. The sodium bicarbonate concentration was varied to meet the buffering capacity required. Cultures of diploid human foreskin fibroblasts (HFF) or MRC-5 cells were grown in medium consisting of MEM(E) with 10% fetal bovine serum. Cells were passaged at 1:2 to 1:10 dilutions according to conventional procedures by using 0.05% trypsin plus 0.02% EDTA in a HEPES buffered salt solution (HBS) (Shipman, C., Jr., Proc. Soc. Exp. Biol. 130:305-310 (1969)) as described previously. Turk, S. R., et al., Antimicrob. Agents Chemother. 31:544-550 (1987). HFF and MRC-5 cells were passaged only at 1:2 dilutions. CEM cells were maintained in suspension culture as detailed previously. Kucera, L. S., et al., AIDS Res. Human Retroviruses 9:307-314 (1993).
(§2) Cytotoxicity assays. Two different assays were used to explore cytotoxicity of selected compounds as we have detailed previously. (i) Cytotoxicity produced in stationary HFF cells and in growing CEM cells was determined by microscopic inspection of cells used in plaque and RT assays which were not affected by the virus. Turk, S. R., et al., Antimicrob. Agents Chemother. 31:544-550 (1987). (ii) The effect of compounds during two population doublings of KB cells was determined by crystal violet staining and spectrophotometric quantitation of dye eluted from stained cells. Prichard, M. N., et al., Antimicrob. Agents Chemother. 35:1060-1065 (1991).
(§3) Data Analysis. Dose-response relationships were constructed by linearly regressing the percent inhibition of parameters derived in the preceding sections against log drug concentrations. Fifty-percent inhibitory (IC50) concentrations were calculated from the regression lines. Samples containing positive controls (acyclovir for HSV-1, ganciclovir for HCMV, and 2-acetylpyridine thiosemicarbazone for cytotoxicity) were used in all assays.

[2] = tested on: HCMV; test: HCMV yield reduction assay in HFF cells; assay type: cell-based, Human CMV (HCMV); settings: footnote says IC90
Method: (§4) Virological procedures. Stock HCMV was prepared by infecting HFF cells at a multiplicity of infection (m.o.i.) of <0.01 plaque-forming units (p.f.u.) per cell. Cell growth medium was changed every four days until cytopathology was evident in all cells (approximately 21 days). Supernatant fluids were retained as the virus stock. High titer HSV-1 stocks were prepared by infecting KB cells at an m.o.i. of <0.1 as detailed previously. Turk, S. R., et al., Antimicrob. Agents Chemother. 31:544-550 (1987). Virus titers were determined using monolayer cultures of HFF cells for HCMV and monolayer cultures of BSC-1 cells for HSV-1 as described earlier. Prichard, M. N., et al., J. Virol. Methods 28:101-106 (1990). Briefly, HFF or BSC-1 cells were planted as described above in 96-well cluster dishes and incubated overnight at 37° C. in a humidified 3% CO297% air atmosphere. The next day cultures were inoculated with HCMV or HSV-1 and serially diluted 1:3 across the remaining eleven columns of the 96-well plate. Cultures were incubated at 37° C. for 2 hr to permit virus adsorption and then virus inoculum was replaced with 0.2 mL of fresh medium. Cultures were incubated for seven days for HCMV, two or three days for HSV-1, medium was removed, and the cell sheets were stained with 0.1% crystal violet in 20% methanol. Plaques were enumerated under 20-fold magnification in wells having the dilution which gave 5 to 20 plaques per well. Virus titers were calculated according to the following Formula: Titer (p.f.u./mL)=number of plaques×5×3^n; where n represents the nth dilution of the virus used to infect the well in which plaques were enumerated.
The effect of compounds on the replication of HCMV also was measured using a yield reduction assay. HFF cells were planted as described above in 96-well cluster dishes, incubated overnight, medium removed and the cultures were inoculated with HCMV at a m.o.i. of 0.5 to 1 p.f.u. per cell as reported elsewhere. After virus adsorption, inoculum was replaced with 0.2 mL of fresh medium containing test compounds. The first row of 12 wells was left undisturbed and served as virus controls. Each well in the second row received an additional 0.1 mL of medium with test compound at three times the desired final concentration. The contents of the 12 wells were mixed by repeated pipetting and then serially diluted 1:3 along the remaining wells. In this manner, six compounds could be tested in duplicate on a single plate with concentrations from 100 μM to 0.14 μM. Plates were incubated at 37° C. for seven days, subjected to one cycle of freezing and thawing; aliquots from each of the eight wells of a given column were transferred to the first column of a fresh 96-well monolayer culture of HFF cells. Contents were mixed and serially diluted 1:3 across the remaining eleven columns of the secondary plate. Each column of the original primary plate was diluted across a separate plate in this manner. Cultures were incubated, plaques were enumerated, and titers calculated as described above.
as §3

[3] = tested on: murine cytomegalovirus (MCMV); test: Mortality of mice infected with murine cytomegalovirus; assay type: in vivo
Method: (§5) Compounds 1 (B=adenin-N^9-yl and guanin-N^9-yl) were evaluated in mice infected with murine cytomegalovirus (MCMV). Mice were infected intraperitonealy with sufficient MCMV to produce 90 to 100% mortality. Compounds were administered once daily for five days at doses of 5.6, 16.7 and 50 mg/kg by intraperitoneal injection in a 0.4% suspension of carboxymethylcellulose. Ganciclovir was administered in sterile water at the same doses as a positive control drug. All compounds were administered to separate groups of 15 mice each at 6, 24, and 48 hours after infection with MCMV. Groups of 10 uninfected mice also received test compounds as toxicity controls at the doses listed above.

[4] = tested on: KB cells; test: Cytotoxicity in KB cells, growth over two population doublings; assay type: cell-based
Method: as §1, §2, §3

[5] = Toxicity controls: uninfected mice given test compound; assay type: in vivo; settings: 5.6, 16.7 and 50 mg/kg i.p. once daily for five days
Method: as §5

[6] = tested on: HFF cells; test: Cytotoxicity in stationary HFF cells, microscopic inspection; assay type: cell-based, human
Method: as §1, §2, §3

[7] = tested on: HCMV; test: HCMV plaque reduction assay in HFF cells; assay type: cell-based, Human CMV (HCMV); settings: HFF cells; plaque reduction
Method: as §1, §4
(a) HCMV. The effect of compounds on the replication of HCMV has been measured using a plaque reduction assay. HFF cells in 24-well cluster dishes were infected with approximately 100 p.f.u. of HCMV per cm^2 cell sheet using the procedures detailed above. Following virus adsorption, compounds dissolved in growth medium were added to duplicate wells in three to six selected concentrations. Following incubation at 37° C. for 7 to 10 days, cell sheets were fixed, stained with crystal violet and microscopic plaques enumerated as described above. Drug effects were calculated as a percentage of reduction in number of plaques in the presence of each drug concentration compared to the number observed in the absence of drug. Ganciclovir (DHPG) was used as a positive control in all experiments.
as §3

Nc1ncnc2c1ncn2C=C1CC1CO (stereo not drawn) [1 (B = adenine), Example 5, syn-N^9-(2-hydroxymethylcyclopropylidenemethyl)adenine]
IC50 [1]: > 100 µM | IC90 [2]: 1.5 µM | mortality of MCMV-infected mice ([3]; 50 mg/kg i.p. once daily for five days, placebo 100%): 33% | effect on mortality at lower doses or delayed administration ([3]; lower doses, administration delayed until 24 or 48 hours after infection): Decreasing effects | IC50 [4]: 82 µM | deaths in uninfected mice that received only drug [5]: No deaths were observed | IC50 [6]: > 100 µM | IC50 [7]: 2 µM

Source: patent US6958345B2, “2-hydroxymethylcyclopropylidene methylpurines and -pyrimidines as antiviral agents” (The Regents of the University of Michigan, priority 1997, dated 2005)
